Patent US20220177471A1, “N-1 BRANCHED ALKYL SUBSTITUTED IMIDAZO[4,5-C]QUINOLINE COMPOUNDS, COMPOSITIONS, AND METHODS” (3M INNOVATIVE PROPERTIES COMPANY, priority 2019, published 2022)
Like-named read-outs stand apart in the source and are kept apart here.

Test system: Human peripheral blood mononuclear cells (PBMC)
Test: Cytokine induction in human cells (PBMC), cytokines by ELISA / multiplex bead assay
Format: cell-based
Settings: for minimal effective concentration: human PBMC, 21-24 hours, lowest concentration giving cytokine level at least 2x negative control; for cytokine production (statement in words): IFN-alpha, IFN-gamma, TNF-alpha
Protocol: Whole blood was obtained from healthy human donors and collected by venipuncture into vacutainer tubes or syringes containing EDTA. Human peripheral blood mononuclear cells (PBMC) were purified from the whole blood by density gradient centrifugation. Histopaque 1077 (15 mL, Sigma, St. Louis, Mo.) was transferred to 6×50 mL sterile polypropylene conical tubes. The Histopaque was overlayed with 15-25 mL of blood diluted 1:2 in Hank's Balanced Salts Solution (HBSS) (Gibco, Life Technologies, Grand Island, N.Y.). The tubes were then centrifuged at 1370 revolutions per minute (rpm) for 30 minutes at 20° C., with no brake (400×g, GH 3.8 A Rotor).
The interface (buffy coat) containing the PBMC was collected and placed in a new sterile 50 mL conical polypropylene centrifuge tube. The PBMC were mixed with an equal volume of HBSS (about 20 mL from the interface and about 20 mL of HBSS), and then centrifuged at 1090 rpm, 10 minutes, 20° C., with brake (270×g, GH 3.8 A Rotor). After completing centrifugation, the cells were resuspended in 2-3 mL ACK Red blood cell lysis buffer (ammonium chloride potassium solution, Gibco, Life Technologies) and incubated for 2-5 minutes at 20° C. Next, HBSS (40 mL) was added to the cells, and the sample was centrifuged at 270×g for 10 minutes at 20° C. The supernatant was decanted, and the cell pellet was resuspended in 5 mL AIM V Medium (Gibco, Life Technologies). Cell aggregates and debris were removed by filtering the cell solution through a BD Falcon 70 micron nylon cell strainer (BD Biosciences, San Jose, Calif.).
The number of viable cells was determined by counting with a Miltenyi FACS instrument (Miltenyi Biotec Inc., San Diego, Calif.) or by using a hemacytometer. For determining cell viability with a hemacytometer, the cells were diluted 1/10 in 0.4% trypan blue and HBSS (specifically, 50 microliter of trypan blue+40 microliter of HBSS+10 microliter of cell solution were added to a microfuge tube and mixed). Ten microliters of the diluted cells were then applied to the hemacytometer, and the number of viable PBMC were determined by microscopy.
The PBMC sample was then resuspended in 96-well plates at a concentration of 8×10^5 cells/well in 0.1 mL of AIM-V medium. Each compound was solubilized in dimethyl sulfoxide (DMSO) to create a 3 mM stock solution. The stock solution was then further diluted with AIM-V medium to prepare the serial dilutions. The diluted compound (100 microliters) was then transferred to the PBMCs to produce testing sets with final compound concentrations of either 30, 10, 3.3, 1.1, 0.37, 0.12, 0.04, 0.01 micromolar (testing set A); 100, 30, 10, 3.3, 1.1, 0.37, 0.12, 0.04, 0.01, 0.005 micromolar (testing set B); 100, 33.3, 11.1, 3.7, 1.2, 0.41 micromolar (testing set C); or 100, 50, 30, 10, 3.3, 1.1, 0.37, 0.12, 0.04 micromolar (testing set D). The plates also had both positive and negative controls. The negative control wells contained only AIM-V medium with no example compound. The positive control wells contained a control set of imiquimod serially diluted to concentrations of either 30, 10, 3.3, 1.1, 0.37, 0.12, 0.04, 0.01 micromolar (control set A); 100, 30, 10, 3.3, 1.1, 0.37, 0.12, 0.04, 0.01, 0.005 micromolar (control set B); 100, 33.3, 11.1, 3.7, 1.2, 0.41 micromolar (control set C); or 100, 50, 30, 10, 3.3, 1.1, 0.37, 0.12, 0.04 micromolar (control set D). The concentrations used in the control set were selected to match the concentrations used in the testing set. The plates were then cultured at 37° C./5% CO2 for 21-24 hours. Cell-free supernatants were harvested by centrifuging the 96-well plates at 2100 rpm, 23° C. for 10 minutes. Approximately 160 microliters of the supernatant was then stored in a NUNC 96-well plate, covered with the compression cap and stored at −80° C. until the cytokine analysis was done.
IFN-alpha cytokine levels (picograms/mL) were measured by ELISA (human IFN-alpha, pan specific, Mabtech, Cincinnati, Ohio). […]

[1] = ELISA, read-out: MEC to Induce Cytokine: IFN-alpha
[2] = multiplex bead assay, read-out: MEC to Induce Cytokine: IFN-gamma
[3] = multiplex bead assay, read-out: MEC to Induce Cytokine: TNF-alpha

Work on C[C@@H](n1cnc2c(N)nc3ccccc3c21)C(C)(C)C [Example 3, 1-[(1R)-1,2,2-trimethylpropyl]imidazo[4,5-c]quinolin-4-amine] yielded a minimal effective concentration [1] of 1.2 µM, a minimal effective concentration [2] of 1.2 µM and a minimal effective concentration [3] of 1.2 µM.
With C[C@@H](n1cnc2c(N)nc3ccccc3c21)C(C)(C)O [Example 9, (3R)-3-(4-aminoimidazo[4,5-c]quinolin-1-yl)-2-methyl-butan-2-ol] the minimal effective concentration [1] was 3.3 µM, the minimal effective concentration [2] was 3.3 µM and the minimal effective concentration [3] was 10 µM.
For CCCC[C@@H](n1cnc2c(N)nc3ccccc3c21)C(C)(C)O [Example 15, (3R)-3-(4-aminoimidazo[4,5-c]quinolin-1-yl)-2-methyl-heptan-2-ol], the minimal effective concentration [1] was ≤ 0.04 µM, the minimal effective concentration [2] was 0.12 µM and the minimal effective concentration [3] was 0.12 µM.
With CC(C)Cn1cnc2c(N)nc3ccccc3c21 [Comparative Example 1, 1-isobutylimidazo[4,5-c]quinolin-4-amine, reference compound] the minimal effective concentration [1] was 11.1 µM, the minimal effective concentration [2] was 11.1 µM and the minimal effective concentration [3] was 11.1 µM.
In the case of CCC[C@@H](n1cnc2c(N)nc3ccccc3c21)C(C)(C)O [Example 13, (3R)-3-(4-aminoimidazo[4,5-c]quinolin-1-yl)-2-methyl-hexan-2-ol], the minimal effective concentration [1] is reported as ≤ 0.41 µM, the minimal effective concentration [2] is reported as ≤ 0.41 µM and the minimal effective concentration [3] is reported as ≤ 0.41 µM.
In the case of C[C@H](n1cnc2c(N)nc3ccccc3c21)C(C)(C)C [Example 4, 1-[(1S)-1,2,2-trimethylpropyl]imidazo[4,5-c]quinolin-4-amine], the “cytokine production (statement in words)” value is reported as “inactive toward cytokine production”, the minimal effective concentration [1] is reported as > 100 µM and the minimal effective concentration [2] is reported as > 100 µM. The minimal effective concentration [3] was > 100 µM.
For CCCC[C@H](n1cnc2c(N)nc3ccccc3c21)C(C)(C)O [Example 16, (3S)-3-(4-aminoimidazo[4,5-c]quinolin-1-yl)-2-methyl-heptan-2-ol], the “cytokine production (statement in words)” value was “inactive toward cytokine production”, the minimal effective concentration [1] was > 100 µM and the minimal effective concentration [2] was > 100 µM. The minimal effective concentration [3] was > 100 µM.
C[C@@H](C1CCCCC1)n1cnc2c(N)nc3ccccc3c21 [Example 6, 1-[(1S)-1-cyclohexylethyl]imidazo[4,5-c]quinolin-4-amine] was tested, and the “cytokine production (statement in words)” value was “inactive toward cytokine production”, the minimal effective concentration [1] was > 100 µM and the minimal effective concentration [2] was > 100 µM. The minimal effective concentration [3] was > 100 µM.
With CC(C)[C@@H](C)n1cnc2c(N)nc3ccccc3c21 [Example 1, 1-[(1R)-1,2-dimethylpropyl]imidazo[4,5-c]quinolin-4-amine] the minimal effective concentration [1] was 3.7 µM, the minimal effective concentration [2] was 3.7 µM and the minimal effective concentration [3] was 1.2 µM.
CCC(O)(CC)[C@@H](C)n1cnc2c(N)nc3ccccc3c21 [Example 19, (2R)-2-(4-aminoimidazo[4,5-c]quinolin-1-yl)-3-ethyl-pentan-3-ol] gave a minimal effective concentration [1] of 1.1 µM, a minimal effective concentration [2] of 3.3 µM and a minimal effective concentration [3] of 1.1 µM.
CC[C@@H](n1cnc2c(N)nc3ccccc3c21)C(C)(C)O [Example 11, (3R)-3-(4-aminoimidazo[4,5-c]quinolin-1-yl)-2-methyl-pentan-2-ol] showed a minimal effective concentration [1] of 1.1 µM, a minimal effective concentration [2] of 3.3 µM and a minimal effective concentration [3] of 1.1 µM.
For CC[C@H](n1cnc2c(N)nc3ccccc3c21)C(C)(C)O [Example 12, (3S)-3-(4-aminoimidazo[4,5-c]quinolin-1-yl)-2-methyl-pentan-2-ol], the “cytokine production (statement in words)” value was “inactive toward cytokine production”, the minimal effective concentration [1] was > 100 µM and the minimal effective concentration [2] was > 100 µM. For the same molecule, the minimal effective concentration [3] was > 100 µM.
With C[C@H](C1CCCCC1)n1cnc2c(N)nc3ccccc3c21 [Example 5, 1-[(1R)-1-cyclohexylethyl]imidazo[4,5-c]quinolin-4-amine] the minimal effective concentration [1] was 0.41 µM, the minimal effective concentration [2] was 1.2 µM and the minimal effective concentration [3] was 0.41 µM.
CCCC[C@H](C(C)C)n1cnc2c(N)nc3ccccc3c21 [Example 7, 1-[(1R)-1-isopropylpentyl]imidazo[4,5-c]quinolin-4-amine] was tested, and the minimal effective concentration [1] was 0.12 µM, the minimal effective concentration [2] was > 30 µM and the minimal effective concentration [3] was 0.12 µM.
Work on CC(C)(O)Cn1cnc2c(N)nc3ccccc3c21 [Comparative Example 2, 1-(4-aminoimidazo[4,5-c]quinolin-1-yl)-2-methyl-propan-2-ol, reference compound] yielded a minimal effective concentration [1] of 10 µM, a minimal effective concentration [2] of 10 µM and a minimal effective concentration [3] of 10 µM.
In the case of CC(C)[C@H](C)n1cnc2c(N)nc3ccccc3c21 [Example 2, 1-[(1S)-1,2-dimethylpropyl]imidazo[4,5-c]quinolin-4-amine], the “cytokine production (statement in words)” value is reported as “inactive toward cytokine production”, the minimal effective concentration [1] is reported as > 100 µM and the minimal effective concentration [2] is reported as > 100 µM. The minimal effective concentration [3] was > 100 µM.
With CCCC[C@@H](n1cnc2c(N)nc3ccccc3c21)C(C)(C)C [Example 8, 1-[(1R)-1-tert-butylpentyl]imidazo[4,5-c]quinolin-4-amine] the minimal effective concentration [1] was 0.04 µM, the minimal effective concentration [2] was > 30 µM and the minimal effective concentration [3] was 0.04 µM.
C[C@H](n1cnc2c(N)nc3ccccc3c21)C(C)(C)O [Example 10, (3S)-3-(4-aminoimidazo[4,5-c]quinolin-1-yl)-2-methyl-butan-2-ol] was tested, and the “cytokine production (statement in words)” value was “inactive toward cytokine production”, the minimal effective concentration [1] was > 30 µM and the minimal effective concentration [2] was > 30 µM. The minimal effective concentration [3] was > 30 µM.
For CC(C)C[C@@H](n1cnc2c(N)nc3ccccc3c21)C(C)(C)O [Example 17, (3R)-3-(4-aminoimidazo[4,5-c]quinolin-1-yl)-2,5-dimethyl-hexan-2-ol], the minimal effective concentration [1] was 10 µM, the minimal effective concentration [2] was 10 µM and the minimal effective concentration [3] was 10 µM.
With CCC[C@H](n1cnc2c(N)nc3ccccc3c21)C(C)(C)O [Example 14, (3S)-3-(4-aminoimidazo[4,5-c]quinolin-1-yl)-2-methyl-hexan-2-ol] the “cytokine production (statement in words)” value was “inactive toward cytokine production”, the minimal effective concentration [1] was > 30 µM and the minimal effective concentration [2] was > 30 µM. The minimal effective concentration [3] was > 30 µM.
In the case of CC(C)C[C@H](n1cnc2c(N)nc3ccccc3c21)C(C)(C)O [Example 18, (3S)-3-(4-aminoimidazo[4,5-c]quinolin-1-yl)-2,5-dimethyl-hexan-2-ol], the “cytokine production (statement in words)” value is reported as “inactive toward cytokine production”, the minimal effective concentration [1] is reported as > 100 µM and the minimal effective concentration [2] is reported as > 100 µM. For the same molecule, the minimal effective concentration [3] was > 100 µM.
In the case of C[C@H](n1cnc2c(N)nc3ccccc3c21)C(C)(C)F [Example 21, 1-[(1S)-2-fluoro-1,2-dimethyl-propyl]imidazo[4,5-c]quinolin-4-amine], the “cytokine production (statement in words)” value is reported as “inactive toward cytokine production”, the minimal effective concentration [1] is reported as > 100 µM and the minimal effective concentration [2] is reported as > 100 µM. For the same molecule, the minimal effective concentration [3] was > 100 µM.
